The values that follow come from PubChem BioAssay (NCI).

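Five compound concentrations were applied to cells in 96-well plates for 48 hours; endpoints were derived by simple linear interpolation of the resulting dose-response curve. GI50 is the concentration that inhibits growth by half. TGI is the concentration that stops growth completely.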

Among the test systems are HOP-92 NSCLC; NCI-H460 lung; SN12C renal; UO-31 renal; HT29 colon; ACHN renal; HS 578T breast; NCI-H226 lung; HCT-15 colon; PC-3 prostate.
Common to all, as to assay: growth of human tumour cells (NCI), 48 h

In the case of `CCOC(=O)c1ccc(NC(=O)NC2=NCCS2)cc1`, the GI50 in the test on HOP-92 NSCLC is 0.418 µM; in the test with NCI-H460 lung, 3.2 µM; in the test on SN12C renal, 0.954 µM; in the test on UO-31 renal, 5.13 µM; with HT29 colon, over 93.5 µM; in the test on ACHN renal, 45.9 µM. The GI50 with HS 578T breast is 1.97 µM; in the test on NCI-H226 lung, 3.14 µM; in the test with HCT-15 colon it was 8.54 µM; in the test on PC-3 prostate, 0.451 µM. Also, the TGI with HOP-92 NSCLC, in the test with NCI-H460 lung, in the test on SN12C renal, in the test on UO-31 renal, with HT29 colon and in the test on ACHN renal was over 100 µM in each case. In addition, the TGI in the test on HS 578T breast, in the test with NCI-H226 lung, in the test on HCT-15 colon and in the test on PC-3 prostate was over 100 µM each time.

With `CCCN(CCC)c1ccc(C=O)c(Cl)c1`, the GI50 was 9.64 µM with HOP-92 NSCLC; 2.19 µM in the test with NCI-H460 lung; 28.1 µM in the test on SN12C renal; 19.7 µM in the test on UO-31 renal; 18.4 µM with HT29 colon; 31.7 µM in the test with ACHN renal. In addition, the GI50 is 22.9 µM in the test on HS 578T breast, 0.152 µM with NCI-H226 lung, 24 µM in the test with HCT-15 colon and 29.1 µM in the test on PC-3 prostate. Besides, the TGI with HOP-92 NSCLC is 36 µM; in the test with NCI-H460 lung, 39.3 µM; in the test on SN12C renal, over 100 µM; with UO-31 renal, over 83.8 µM; in the test with HT29 colon, 50.2 µM; with ACHN renal, over 100 µM. For the same molecule, the TGI is over 96.8 µM with HS 578T breast, 0.322 µM in the test with NCI-H226 lung, over 100 µM with HCT-15 colon and over 100 µM in the test on PC-3 prostate.

For `COc1ccc(-c2c(C#N)c(N)nc(N3CCOCC3)c2C#N)cc1`, the GI50 in the test with HOP-92 NSCLC was 14.3 µM; in the test on NCI-H460 lung, 29.9 µM; in the test on SN12C renal it was 25.7 µM; with UO-31 renal, 13.1 µM; in the test with HT29 colon, 26.6 µM; with ACHN renal it was 20.2 µM. In addition, the GI50 in the test with HS 578T breast was 17.5 µM; in the test on NCI-H226 lung, 26.3 µM; with HCT-15 colon, 18.8 µM; in the test with PC-3 prostate it was 17.6 µM. Further, the TGI is 87.7 µM in the test on HOP-92 NSCLC; over 100 µM in the test with NCI-H460 lung; over 100 µM in the test with SN12C renal; 49.2 µM in the test with UO-31 renal; over 100 µM in the test with HT29 colon; over 100 µM with ACHN renal. Also, the TGI in the test with HS 578T breast was 64.4 µM; with NCI-H226 lung it was over 100 µM; in the test on HCT-15 colon it was 62.4 µM; in the test on PC-3 prostate, 67.3 µM.

As for `CCCc1nc(Cl)nc(Cl)c1Cl`, the TGI in the test with HOP-92 NSCLC stood at 0.532 µM; in the test with NCI-H460 lung, 5.66 µM; in the test with SN12C renal, 2.13 µM; in the test with UO-31 renal, 0.111 µM; in the test on HT29 colon it was 1.56 µM; in the test on ACHN renal, 1.62 µM. Moreover, the TGI in the test with HS 578T breast was found to be 8.46 µM; with NCI-H226 lung it was 8.97 µM; with HCT-15 colon, 3.15 µM; in the test with PC-3 prostate, 1.6 µM.

With `CCOC(=O)c1sc(-c2ccc(OS(=O)(=O)C[C@]34CCC(CC3=O)C4(C)C)c(C=O)c2)nc1C`, the GI50 with HOP-92 NSCLC is 0.951 µM; in the test with NCI-H460 lung, 1.03 µM; with SN12C renal it was 1.41 µM; in the test with UO-31 renal, 1.05 µM; in the test with HT29 colon, 1.23 µM; in the test on ACHN renal, 1.3 µM. For the same molecule, the GI50 is 1.32 µM in the test with HS 578T breast, 0.943 µM in the test on NCI-H226 lung, 0.761 µM with HCT-15 colon and 1.4 µM in the test with PC-3 prostate. Also, the TGI is 3.7 µM in the test on HOP-92 NSCLC; 3.24 µM in the test on NCI-H460 lung; 4.58 µM in the test with SN12C renal; 4.65 µM in the test on UO-31 renal; 3.34 µM in the test with HT29 colon; 3.71 µM in the test on ACHN renal. In addition, the TGI with HS 578T breast is 4.23 µM; with NCI-H226 lung, 2.72 µM; in the test on HCT-15 colon, 1.69 µM; in the test on PC-3 prostate, over 50 µM.

As for `O=C1c2cccnc2-c2nc(-c3cccnc3)cc3c2c1nc1ccccc13`, the GI50 with HOP-92 NSCLC was 6.44 µM; in the test on NCI-H460 lung, 2.16 µM; with SN12C renal it was 2.18 µM; in the test with UO-31 renal, 15.2 µM; in the test with HT29 colon, 2.52 µM; in the test on ACHN renal, 1.55 µM. The GI50 in the test on HS 578T breast was 2.94 µM; with NCI-H226 lung it was 2.02 µM; in the test with HCT-15 colon, 1.63 µM; in the test with PC-3 prostate, 4.4 µM. The TGI is 80.6 µM in the test with HOP-92 NSCLC; 5.02 µM in the test with SN12C renal; 37.3 µM in the test with UO-31 renal; 2.88 µM in the test on ACHN renal; over 20.9 µM in the test on HS 578T breast; 5.53 µM in the test with NCI-H226 lung. Also, the TGI in the test on HCT-15 colon was determined as 4.58 µM; with PC-3 prostate, 26.7 µM.

`Nc1nc(N)c2cc(Sc3ccc4ccccc4c3)ccc2n1`: the TGI with HOP-92 NSCLC amounted to 5.44 µM; in the test with NCI-H460 lung, 2.26 µM; with SN12C renal, 8.93 µM; in the test with UO-31 renal it was 7.69 µM; with HT29 colon, 3.7 µM; in the test with ACHN renal it was 5.15 µM. Besides, the TGI in the test on HS 578T breast is 9.17 µM; in the test on NCI-H226 lung it was 18.1 µM; with HCT-15 colon, 2.55 µM; in the test on PC-3 prostate, 6.12 µM.

Turning to `Nc1c(C(=O)c2cccc(C#CCN3CCCCC3)c2)cnn1-c1ccc(F)cc1`, the GI50 was 10.3 µM in the test with HOP-92 NSCLC; over 25 µM in the test with NCI-H460 lung; 24.4 µM in the test with SN12C renal; 16.2 µM with UO-31 renal; over 17.7 µM in the test with HT29 colon; over 19.2 µM in the test on ACHN renal. Further, the GI50 in the test with HS 578T breast is over 25 µM; in the test on NCI-H226 lung, over 23.4 µM; in the test on HCT-15 colon, over 22.5 µM; in the test with PC-3 prostate, over 25 µM. The TGI in the test with HOP-92 NSCLC, in the test with NCI-H460 lung, in the test with SN12C renal, in the test on UO-31 renal, in the test on HT29 colon and with ACHN renal was over 25 µM in each case. The TGI with HS 578T breast, in the test on NCI-H226 lung, in the test on HCT-15 colon and in the test on PC-3 prostate was over 25 µM in each case.
